Experimental data: EP3046573B1, “AMYLIN ANALOGUES” (Zealand Pharma A/S, priority 2013, dated 2015)
Read-outs that look alike come from different tables or passages of the source. Numbered stars: 1 amine (or outer) side, 2 acyl side, 3 side chain; on linkers, the order of the positions; unused ones are H or OH. Bridge positions count the residues as written; N and C are the ends. Square brackets hold non-standard residues; d marks the D form. Peptide text beside a SMILES is read from it. * marks the point of attachment. C20 diacid = O=C(O)CCCCCCCCCCCCCCCCCCC(=O)*; γGlu = O=C(O)[C@H](CCC(=O)[*:2])N[*:1]; NMeI = CC[C@H](C)[C@H](NC)C(=O)O; Sar = CNCC(=O)O

Assays:
[1] = target: T1, human amylin receptor 3 (hAMYR3) consisting of hCTR2 co-expressed with human Receptor Activity Modifying Protein 3 (hRAMP3) (Homo sapiens, UniProt O60896+P30988); test: hAMYR3 assay: induction of cAMP (AlphaScreen cAMP Assay kit) in COS7 cells expressing hAMYR3; format: cell-based
T1 construct: expressed in transfected cells
T1 sequence (P30988 25-474): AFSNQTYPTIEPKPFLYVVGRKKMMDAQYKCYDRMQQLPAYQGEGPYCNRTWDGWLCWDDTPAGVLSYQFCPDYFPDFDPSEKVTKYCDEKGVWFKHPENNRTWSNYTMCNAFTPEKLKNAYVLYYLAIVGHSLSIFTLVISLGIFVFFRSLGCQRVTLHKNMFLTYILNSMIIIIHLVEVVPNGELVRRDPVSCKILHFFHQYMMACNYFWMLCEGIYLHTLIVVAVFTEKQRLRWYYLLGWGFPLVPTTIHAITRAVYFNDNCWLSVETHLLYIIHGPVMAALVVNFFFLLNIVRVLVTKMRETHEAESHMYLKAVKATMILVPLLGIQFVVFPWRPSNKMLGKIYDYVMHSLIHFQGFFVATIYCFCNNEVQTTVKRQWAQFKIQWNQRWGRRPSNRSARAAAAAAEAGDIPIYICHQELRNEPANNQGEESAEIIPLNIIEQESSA
T1 sequence (O60896 24-148 partner): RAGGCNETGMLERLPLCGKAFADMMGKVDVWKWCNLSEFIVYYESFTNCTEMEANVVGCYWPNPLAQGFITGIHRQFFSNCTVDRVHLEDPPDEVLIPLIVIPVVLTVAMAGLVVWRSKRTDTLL
How it was run: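 Stable COS7 clone co-expressing hCTR2 and hRAMP3, stimulated 15 min at 37° C with increasing peptide in Tyrode buffer pH 7.4 with 100 µM IBMX and 0.1% casein. cAMP measured by AlphaScreen after lysis; EC50 and % efficacy versus pramlintide from 4PL fit.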

[2] = Solubility assessment (turbidity absorbance at 325 nm); format: physicochemical; settings: stock 2 mg/ml diluted 1:1, ambient temperature (typically 25°C), n=1; for Solubility, Acetate buffer pH 4: 100 mM acetate buffer pH 4.0; for Solubility, Acetate buffer pH 5: 100 mM acetate buffer pH 5.0; for Solubility, Histidine buffer pH 6: 100 mM histidine buffer pH 6.0; for Solubility, Histidine buffer pH 7: 100 mM histidine buffer pH 7.0; for Solubility, Phosphate buffer pH 6: 100 mM phosphate buffer pH 6.0; for Solubility, Phosphate buffer pH 7: 100 mM phosphate buffer pH 7.0; for Solubility, Phosphate buffer pH 7.5: 100 mM phosphate buffer pH7.5
How it was run: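 Stock 2 mg/ml peptide, H2O/HCl pH 2.5; 1:1 into 100 mM buffers: acetate pH 4.0/5.0, His pH 6.0/7.0, phosphate pH 6.0/7.0/7.5. A280 + A325, ~25°C, n=1. Soluble ≥ 1 mg/ml if A325 ≤ 0.02.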

[3] = Assessment of physical stability: fibril formation detected with Thioflavin T (ThT), lag-time; format: physicochemical; settings: 1 mg/ml peptide, 40 µM ThT, FND = Fibrillation not detected; for Fibrillation lag time (hours) pH 4.0 (Ac): 50 mM acetate buffer pH 4.0, 96 hours at 40°C; for Fibrillation lag time (hours) pH 7.0 (His): 50 mM histidine buffer pH 7.0, 96 hours at 40°C; for Fibrillation lag time (hours) pH 7.0 (Ph): 50 mM phosphate buffer pH 7.0, 96 hours at 40°C
How it was run: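 Test peptide at 1 mg/ml with 40 µM ThT in 50 mM phosphate (pH 7.0), 50 mM histidine (pH 7.0) or 50 mM acetate (pH 4.0), in triplicate, 40° C. for 96 h. Fluorescence read every 10 min after 300 s agitation. Lag-time (h) taken as intersection of linear fits to initial stable and growth phases.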

| EC50 ([1]; cAMP induction in COS7 cells expressing hAMYR3, average of a minimum of 3 determinations, read-out: hAMY R3 EC50) | SMILES | Solubility, Acetate buffer pH 4 [2] | Solubility, Acetate buffer pH 5 [2] | Solubility, Histidine buffer pH 6 [2] | Solubility, Histidine buffer pH 7 [2] | Solubility, Phosphate buffer pH 6 [2] | Solubility, Phosphate buffer pH 7 [2] | Solubility, Phosphate buffer pH 7.5 [2] | Fibrillation lag time (hours) pH 4.0 (Ac) [3] | Fibrillation lag time (hours) pH 7.0 (His) [3] | Fibrillation lag time (hours) pH 7.0 (Ph) [3] | EC50 [1] |
| --- | --- | --- | --- | --- | --- | --- | --- | --- | --- | --- | --- | --- |
| 95 pM | CC[C@H](C)[C@@H](C(=O)N[C@@H](CC(C)C)C(=O)N[C@@H](CO)C(=O)N[C@@H](CO)C(=O)N[C@H](C(=O)N[C@@H](CC(=O)O)C(=O)N[C@H](C(=O)NCC(=O)N[C@@H](CO)C(=O)N[C@@H](CC(=O)O)C(=O)N[C@H](C(=O)N1CCC[C@H]1C(N)=O)[C@@H](C)O)C(C)C)[C@@H](C)O)N(C)C(=O)[C@H](C)NC(=O)CN(C)C(=O)[C@H](Cc1ccccc1)NC(=O)[C@H](CO)NC(=O)[C@H](CO)NC(=O)[C@H](CCCNC(=N)N)NC(=O)[C@H](Cc1c[nH]cn1)NC(=O)[C@H](CC(C)C)NC(=O)[C@H](Cc1ccccc1)NC(=O)[C@H](CCC(=O)O)NC(=O)[C@H](C)NC(=O)[C@H](CC(C)C)NC(=O)[C@H](CCCNC(=N)N)NC(=O)[C@H](CC(=O)O)NC(=O)[C@@H](NC(=O)[C@H](C)NC(=O)[C@@H]1CSSC[C@H](NC(=O)[C@H](CCCNC(=N)N)NC(=O)CC[C@H](NC(=O)CCCCCCCCCCCCCCCCCCC(=O)O)C(=O)O)C(=O)N2CCC[C@H]2C(=O)N[C@@H]([C@@H](C)O)C(=O)N[C@@H](C)C(=O)N[C@@H]([C@@H](C)O)C(=O)N1)[C@@H](C)O [Compound 172, [19CD]-isoGlu-RC()PTATC()ATDRLAEFLHRSSF-Gly(Me)-A-Ile(Me)-LSSTDVGSDTP-NH2] ({C20 diacid-γGlu}-RCPTATCATDRLAEFLHRSSF[Sar]A[NMeI]LSSTDVGSDTP-NH2; disulfide 2-7) | SS (SS indicates solubility ≥ 1mg/ml) | SS (SS indicates solubility ≥ 1mg/ml) | SS (SS indicates solubility ≥ 1mg/ml) | SS (SS indicates solubility ≥ 1mg/ml) | SS (SS indicates solubility ≥ 1mg/ml) | SS (SS indicates solubility ≥ 1mg/ml) | SS (SS indicates solubility ≥ 1mg/ml) | FND | FND | FND |  |
|  | CC[C@H](C)[C@@H](C(=O)N[C@@H](CC(C)C)C(=O)N[C@@H](CO)C(=O)N[C@@H](CO)C(=O)N[C@H](C(=O)N[C@@H](CC(N)=O)C(=O)N[C@H](C(=O)NCC(=O)N[C@@H](CO)C(=O)N[C@@H](CC(N)=O)C(=O)N[C@H](C(=O)N1CCC[C@H]1C(N)=O)[C@@H](C)O)C(C)C)[C@@H](C)O)N(C)C(=O)[C@H](C)NC(=O)CN(C)C(=O)[C@H](Cc1ccccc1)NC(=O)[C@H](CC(N)=O)NC(=O)[C@H](CC(N)=O)NC(=O)[C@H](CO)NC(=O)[C@H](CO)NC(=O)[C@H](CCCNC(=N)N)NC(=O)[C@H](Cc1c[nH]cn1)NC(=O)[C@H](CC(C)C)NC(=O)[C@H](Cc1ccccc1)NC(=O)[C@H](CCC(=O)O)NC(=O)[C@H](C)NC(=O)[C@H](CC(C)C)NC(=O)[C@H](CCCNC(=N)N)NC(=O)[C@H](CCC(N)=O)NC(=O)[C@@H](NC(=O)[C@H](C)NC(=O)[C@@H]1CSSC[C@H](NC(=O)[C@H](Cc2c[nH]c3ccccc23)NC(=O)[C@H](CCCNC(=N)N)NC(=O)CC[C@H](NC(=O)CCCCCCCCCCCCCCCCCCC(=O)O)C(=O)O)C(=O)N[C@@H](CC(N)=O)C(=O)N[C@@H]([C@@H](C)O)C(=O)N[C@@H](C)C(=O)N[C@@H]([C@@H](C)O)C(=O)N1)[C@@H](C)O [Compound 174, [19CD]-isoGlu-RWC()NTATC()ATQRLAEFLHRSSNNF-Gly(Me)-A-Ile(Me)-LSSTNVGSNTP-NH2] ({C20 diacid-γGlu}-RWCNTATCATQRLAEFLHRSSNNF[Sar]A[NMeI]LSSTNVGSNTP-NH2; disulfide 3-8) | SS (SS indicates solubility ≥ 1mg/ml) | SS (SS indicates solubility ≥ 1mg/ml) | SS (SS indicates solubility ≥ 1mg/ml) | SS (SS indicates solubility ≥ 1mg/ml) | SS (SS indicates solubility ≥ 1mg/ml) | SS (SS indicates solubility ≥ 1mg/ml) | II (II indicates solubility ≤ 1 mg/ml) | FND | FND | FND | 180 pM |
